Tests used:
[1] = Acute toxicity, single intragastric administration, Kerber method; conditions: mouse, in vivo, po; white outbred mice 20-22 g, single intragastric administration, Kerber method
Excerpt: (§1) The acute toxicity of the compound 1a was studied in white outbred mice weighting 20-22 g following single intragastric administration using Kerber method.

white outbred mice = assay: as above; conditions: mouse, in vivo
Excerpt: as §1

[2] = tested on: MPTP-induced parkinsonism; assay: Antiparkinson activity in mice after single administration of MPTP (locomotor activity, TruScan); type: in vivo; conditions: for general movement activity (number of movement acts) / movement activity / movement distance / movement speed / number of explored holes / number of rearings / time of exploratory activity: single MPTP 30 mg/kg i.p., 1.5 h after MPTP, 3 min; for antiparkinson activity (in words): mice, single administration of MPTP, doses 10 and/or 20 mg/kg per os as stated in the sentence
Procedure: (§2) Parkinsonism was induced by single and multiple intraperitoneal administration of MPTP in 30 mg/kg doses in male mice of C57B1/6 strain and Wistar rats.
(§3) Antiparkinson activity of the agents was studied by the degree of hypokinesia and locomotor activity using Truscan apparatus (USA) or by mortality percentage.
(§4) Experiments were carried out in male mice of C57B1/6 strain in groups of 10 mice each. Parkinson syndrome was induced by intraperitoneal administration of 30 mg/kg dose of MPTP, saline was administered to intact control group. The agent was administered per os 15 minutes after the reproduction of Parkinson syndrome. Hypokinesia was evaluated 1.5 hours after MPTP injection by the degree of locomotor activity using TruScan apparatus (USA) during 3 minutes.
as §4, with “agents in 20 mg/kg doses were” for “agent was”
as §4, with “agent in 10 mg/kg and 20 mg/kg doses were” for “agent was”

[3] = tested on: MPTP-induced parkinsonism; assay: Antiparkinson activity in mice in 10 days administration of MPTP and the agent (mortality); type: in vivo; conditions: for Mortality, %: C57B1/6 mice, MPTP 30 mg/kg i.p. daily 10 days, day 11
Procedure: as §3
Experiments were carried out in male mice of C57B1/6 strain in groups of 10 mice each. Parkinson syndrome was induced by intraperitoneal administration of 30 mg/kg dose of MPTP daily during 10 days. The agent ((1R,2R,6S)-1a in 20 mg/kg dose and levodopa (the drug of comparison) in 10 mg/kg dose were administered per os 4 hours after MPTP injection daily during 10 days. The effect was evaluated by the number of surviving animals on the 11 day of the experiment.

[4] = tested on: MPTP-induced parkinsonism; assay: Antiparkinson activity in rats in 30 days administration of MPTP and the agent (locomotor activity, TruScan); type: in vivo; conditions: for general movement activity (number of movement acts) / movement activity / movement distance / movement speed / number of explored holes / number of rearings / time of exploratory activity: Wistar rats, MPTP 30 mg/kg (table; text 40 mg/kg) i.p. daily 30 days, day 30, 3 min
Procedure: as §2, §3
Experiments were carried out in male Wistar rats in groups of 10 mice each. Parkinson syndrome was induced by intraperitoneal administration of 40 mg/kg dose of MPTP daily during 30 days. Saline was administered to intact control group. The agent ((1R,2R,6S)-1a in 20 mg/kg dose and levodopa (the drug of comparison) in 10 mg/kg dose were administered per os 4 hours after MPTP injection daily during 30 days. Hypokinesia was evaluated on 30 day of experiment by the degree of locomotor activity using TruScan apparatus (USA) during 3 minutes.

[5] = tested on: MPTP-induced parkinsonism; assay: Antiparkinson activity in mice after 3 days administration of MPTP (locomotor activity, TruScan); type: in vivo; conditions: for general movement activity (number of movement acts) / movement activity / movement distance / movement speed / number of explored holes / number of rearings / time of exploratory activity: 3 min
Procedure: as §2, §3
Experiments were carried out in male mice of C57B1/6 strain in groups of 10 mice each. Parkinson syndrome was induced by intraperitoneal administration of 30 mg/kg dose of MPTP during 3 days. The agent ((1R,2R,6S)-1a was administered per os in 20 mg/kg and 30 mg/kg doses 24 hours after the last MPTP injection. Hypokinesia was evaluated 1 hour after the agent administration by the degree of locomotor activity using TruScan apparatus (USA) during 3 minutes.
Experiments were carried out in male mice of C57B1/6 strain in groups of 10 mice each. Parkinson syndrome was induced by intraperitoneal administration of 30 mg/kg dose of MPTP daily during 3 days. Agent (1R,2R,6S)-1b with ee 60% in 20 mg/kg dose was administered per os 24 hours after the last MPTP injection. Hypokinesia was evaluated 1.5 hours after MPTP injection by the degree of locomotor activity using TruScan apparatus (USA) during 3 minutes.

[6] = C57B1/6 mice, agent 10 mg/kg per os 15 min after
[7] = C57B1/6 mice, agent 20 mg/kg per os 15 min after
[8] = agent 20 mg/kg per os 4 h after MPTP daily
[9] = C57B1/6 mice, MPTP 30 mg/kg i.p. 3 days, agent 20 mg/kg per os 24 h after last MPTP, 1 h after agent
[10] = C57B1/6 mice, MPTP 30 mg/kg i.p. 3 days, agent 30 mg/kg per os 24 h after last MPTP, 1 h after agent
[11] = Table 5: C57B1/6 mice, agents 20 mg/kg per os 15 min after
[12] = Table 6: C57B1/6 mice, agent 10 mg/kg per os 15 min after
[13] = Table 6: C57B1/6 mice, agent 20 mg/kg per os 15 min after
[14] = Table 7: C57B1/6 mice, MPTP 30 mg/kg i.p. daily 3 days, agent 20 mg/kg per os 24 h after last MPTP
[15] = L-DOPA 10 mg/kg per os 4 h after MPTP daily

With `C=C(C)C1CC=C(C)C(O)C1O` (stereo not drawn) [1a, 3-methyl-6-(1-methylethenyl)cyclohex-3-ene-1,2-diol] the LD50 [1] was 4250 mg/kg and the “acute toxicity (in words)” value (white outbred mice) was “low toxicity”.
For `C=C(C)[C@@H]1CC=C(C)[C@@H](O)[C@@H]1O` [(1R,2R,6S)-1a with ee 60%, (1R,2R,6S)-3-methyl-6-(1-methylethenyl)cyclohex-3-ene-1,2-diol], the “general movement activity (number of movement acts)” value (shortened to “general movement activity”) [2, 6] was 77.2 ± 5, the movement activity [2, 6] was 57 ± 5.3 s and the movement distance [2, 6] was 257.3 ± 29.5 cm. For the same compound, the movement speed [2, 6] was 2.1 ± 0.25 cm/s, the “number of explored holes” value [2, 6] was 7.7 ± 1.07 and the number of rearings [2, 6] was 5.8 ± 0.6. For the same compound, the “time of exploratory activity” value [2, 6] was 3.6 ± 0.7 s, the “general movement activity” value [2, 7] was 80.7 ± 4 and the movement activity [2, 7] was 59 ± 4 s. The movement distance [2, 7] was 276.5 ± 24 cm, the movement speed [2, 7] was 2.25 ± 0.2 cm/s and the “number of explored holes” value [2, 7] was 7.6 ± 1.7. The number of rearings [2, 7] was 8.5 ± 2, the “time of exploratory activity” value [2, 7] was 4.4 ± 1 s and the “antiparkinson activity (in words)” value [2] was “remarkable antiparkinson activity”. For the same compound, the “Mortality, %” value [3, 8] was 10%, the “effect on mortality (in words)” value ([3]; mice, 20 mg/kg, 10 days of administration of the agents and MPTP) was “considerably reduces mortality” and the “comparison with levodopa (in words)” value ([3]; mice, mortality test, agent 20 mg/kg vs levodopa 10 mg/kg) was “as good as the drug of comparison levodopa”. The “general movement activity” value [4, 8] was 81.89 ± 5.5, the movement activity [4, 8] was 62.56 ± 5.2 s and the movement distance [4, 8] was 305.58 ± 30.38 cm. For the same compound, the movement speed [4, 8] was 2.5 ± 0.25 cm/s, the “number of explored holes” value [4, 8] was 4.3 ± 0.73 and the number of rearings [4, 8] was 10.67 ± 1.18. The “time of exploratory activity” value [4, 8] was 1.75 ± 0.5 s, the “antiparkinson activity (in words)” value ([4]; rats, 20 mg/kg, 30 days administration of MPTP and the agent) was “remarkable antiparkinson activity” and the “comparison with levodopa (in words)” value ([4]; rats, 30 days, agent 20 mg/kg vs levodopa 10 mg/kg) was “as good as the drug of comparison levodopa”. The “general movement activity” value [5, 9] was 81.9 ± 3.7, the movement activity [5, 9] was 70.1 ± 3.9 s and the movement distance [5, 9] was 351.8 ± 26.4 cm. The movement speed [5, 9] was 2.9 ± 0.2 cm/s, the “number of explored holes” value [5, 9] was 8.8 ± 1.0 and the number of rearings [5, 9] was 11.1 ± 0.9. The “time of exploratory activity” value [5, 9] was 3.9 ± 0.5 s, the “general movement activity” value [5, 10] was 81.8 ± 2.6 and the movement activity [5, 10] was 66.8 ± 3.7 s. The movement distance [5, 10] was 335.5 ± 28.9 cm, the movement speed [5, 10] was 2.7 ± 0.2 cm/s and the “number of explored holes” value [5, 10] was 3.8 ± 0.6. The number of rearings [5, 10] was 13 ± 1.7 and the “time of exploratory activity” value [5, 10] was 1.6 ± 0.3 s.
For `C=C(C)[C@@H]1CC=C(C)[C@@H](O)[C@@H]1O` [(1R,2R,6S)-1a with ee 94%, (1R,2R,6S)-3-methyl-6-(1-methylethenyl)cyclohex-3-ene-1,2-diol], the “general movement activity” value [2, 11] was 78.6 ± 5.0, the movement activity [2, 11] was 64.0 ± 5.5 s and the movement distance [2, 11] was 332.6 ± 39.6 cm. The movement speed [2, 11] was 2.7 ± 0.3 cm/s, the “number of explored holes” value [2, 11] was 3.2 ± 0.9 and the number of rearings [2, 11] was 13.1 ± 2.5. For the same compound, the “time of exploratory activity” value [2, 11] was 1.5 ± 0.4 s.
For `C=C(C)[C@@H]1CC=C(C)[C@@H](O)[C@@H]1O` [(1R,2R,6S)-1b with ee 60%, diacetate (1R,2R,6S)-3-methyl-6-(1-methylethenyl)cyclohex-3-ene-1,2-diol], the “general movement activity” value [2, 12] was 69.9 ± 6.7, the movement activity [2, 12] was 51.5 ± 7.5 s and the movement distance [2, 12] was 244.4 ± 4.5 cm. The movement speed [2, 12] was 2.0 ± 0.4 cm/s, the “number of explored holes” value [2, 12] was 3.4 ± 1.1 and the number of rearings [2, 12] was 6.4 ± 1.6. The “time of exploratory activity” value [2, 12] was 1.3 ± 0.5 s, the “general movement activity” value [2, 13] was 84.8 ± 4.4 and the movement activity [2, 13] was 58.8 ± 4.5 s. The movement speed [2, 13] was 1.9 ± 0.4 cm/s, the “number of explored holes” value [2, 13] was 3.2 ± 0.5 and the number of rearings [2, 13] was 10.8 ± 1.7. For the same compound, the “time of exploratory activity” value [2, 13] was 2.0 ± 0.3 s, the “general movement activity” value [5, 14] was 83.9 ± 3.5 and the movement activity [5, 14] was 64.1 ± 5.0 s. The movement distance [5, 14] was 310.0 ± 35.6 cm, the movement speed [5, 14] was 2.5 ± 0.3 cm/s and the “number of explored holes” value [5, 14] was 6.0 ± 1.0. For the same compound, the number of rearings [5, 14] was 10.4 ± 1.5, the “time of exploratory activity” value [5, 14] was 3.2 ± 0.8 s and the “antiparkinson activity (in words)” value ([5]; mice, 3 days administration of MPTP, doses 20 (and 30) mg/kg per os as stated in the sentence) was “remarkable antiparkinson activity”.
For `C=C(C)[C@H]1CC=C(C)[C@H](O)[C@H]1O` [(1S,2S,6R)-1a with ee 97%, (1S,2S,6R)-3-methyl-6-(1-methylethenyl)cyclohex-3-ene-1,2-diol], the “general movement activity” value [2, 11] was 57.9 ± 6.0, the movement activity [2, 11] was 34.9 ± 4.3 s and the movement distance [2, 11] was 147.8 ± 20.3 cm. For the same compound, the movement speed [2, 11] was 1.13 ± 0.15 cm/s, the “number of explored holes” value [2, 11] was 2.5 ± 0.9 and the number of rearings [2, 11] was 4.4 ± 1.4. For the same compound, the “time of exploratory activity” value [2, 11] was 1.2 ± 0.6 s and the “antiparkinson activity (in words)” value [2] was “remarkable antiparkinson activity”.
For `N[C@@H](Cc1ccc(O)c(O)c1)C(=O)O` [L-DOPA, reference compound], the “Mortality, %” value [3, 15] was 20%, the “general movement activity” value [4, 15] was 86 ± 3.86 and the movement activity [4, 15] was 65.09 ± 2.92 s. For the same compound, the movement distance [4, 15] was 316.77 ± 16.2 cm, the movement speed [4, 15] was 2.57 ± 0.13 cm/s and the “number of explored holes” value [4, 15] was 4.63 ± 0.56. For the same compound, the number of rearings [4, 15] was 9.63 ± 1.16 and the “time of exploratory activity” value [4, 15] was 1.66 ± 0.25 s.

Source: patent US8809391B2, “Agent for treating Parkinson's disease” (OOO “Tomskaya Farmatsevticheskaya Fabrika”, priority 2009, dated 2014)
